Patent US11246872B2, “Topical acyclovir formulations and uses thereof” (priority 2019, dated 2022)
Where two headings read alike, the source gives them in different places.

Type: physicochemical
Protocol: This Example studies the solubility and stability of acyclovir in various topical excipients. Table 1 and Table 2 below indicate the various excipients that solubility was tested in and stability of acyclovir in these excipients, respectively. [table]

Nc1nc2c(ncn2COCCO)c(=O)[nH]1 [Acyclovir]
Saturated solubility of Acyclovir (pH 4): 0.10 (0.10-0.10) % w/w
Saturated solubility of Acyclovir (pH 6): 0.10 (0.09-0.10) % w/w
